Measurements reported in patent US20260335323A1, “CHIMERIC MOLECULE” (UCL Business Ltd, priority 2023, published 2026).

Biological target: T1, ULK1 (Homo sapiens, UniProt O75385)
T1 sequence (O75385 1-1050): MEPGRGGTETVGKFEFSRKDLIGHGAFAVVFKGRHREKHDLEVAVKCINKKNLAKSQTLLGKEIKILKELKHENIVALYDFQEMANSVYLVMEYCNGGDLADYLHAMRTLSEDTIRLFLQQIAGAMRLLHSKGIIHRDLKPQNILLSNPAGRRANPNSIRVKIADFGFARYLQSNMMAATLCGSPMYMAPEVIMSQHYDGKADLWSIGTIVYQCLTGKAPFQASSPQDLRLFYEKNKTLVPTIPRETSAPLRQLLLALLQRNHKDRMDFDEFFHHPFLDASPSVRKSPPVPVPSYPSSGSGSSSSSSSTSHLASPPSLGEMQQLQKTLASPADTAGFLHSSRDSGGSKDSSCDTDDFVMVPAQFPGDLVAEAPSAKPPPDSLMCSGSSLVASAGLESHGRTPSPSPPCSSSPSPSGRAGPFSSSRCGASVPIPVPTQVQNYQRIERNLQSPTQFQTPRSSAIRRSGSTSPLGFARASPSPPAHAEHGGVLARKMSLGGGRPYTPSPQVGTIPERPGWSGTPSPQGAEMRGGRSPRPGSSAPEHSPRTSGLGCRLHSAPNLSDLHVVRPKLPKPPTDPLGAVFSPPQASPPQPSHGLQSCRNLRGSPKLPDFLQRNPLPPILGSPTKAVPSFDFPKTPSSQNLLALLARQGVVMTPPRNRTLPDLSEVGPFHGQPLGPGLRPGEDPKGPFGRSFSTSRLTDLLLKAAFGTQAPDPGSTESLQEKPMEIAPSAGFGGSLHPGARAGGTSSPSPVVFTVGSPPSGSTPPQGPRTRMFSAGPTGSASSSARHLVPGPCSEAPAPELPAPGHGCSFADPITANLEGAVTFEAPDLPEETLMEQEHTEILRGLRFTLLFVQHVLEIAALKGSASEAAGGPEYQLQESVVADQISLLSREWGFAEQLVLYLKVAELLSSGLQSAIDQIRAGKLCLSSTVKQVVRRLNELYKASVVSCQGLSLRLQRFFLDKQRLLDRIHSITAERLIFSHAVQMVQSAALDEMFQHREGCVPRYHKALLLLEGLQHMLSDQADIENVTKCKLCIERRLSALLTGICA
Assay: ULK1/TOM20 co-localisation immunofluorescence in PANC-1 cells
Assay type: cell-based
Design: pSer317 blot or TOM20 co-localisation
Experimental: FIG. 5. ULKTACs induce potent mitophagy after colocalisation and local activation of ULK1 at mitochondria (A) Representative immunofluorescence of PANC-1 cells treated with CCCP, ULKTACs or both and immunostained for TOM20 and ULK1 and counterstained with Alexa 488 and 568, respectively. Nuclei stained with Hoechst 33342. (B) Quantification of the colocalised ULK1 to TOM20 spot area of PANC-1 cells treated with DMSO, 5 mM CCCP, 10 mM BL-918, 10 mM BL-918+5 mM CCCP, […] NZ-65, […] NZ-65+5 mM CCCP, […] NZ-66, […] NZ-66+5 mM CCCP, 50 mM TSPO ligand, […] NZ-65+50 mM TSPO ligand, […] NZ-66+50 mM TSPO ligand. (C) Western blot of SH-SY5Y cells treated with 1 mM ULKTACs, 5 mM CCCP or both, probed for Mfn2, b-Actin and Tom20—quantifications are shown in (D) for Mfn2, normalised to Actin. (E) Representative images of SH-SY5Y cells stably expressing the mito-mKeima reporter treated with 3 mM CCCP, NZ-65 or both. Nuclei were stained with Hoechst 33342, healthy mitochondria are shown in green and mitochondria in lysosomes are shown in red. Fold change in mitophagy index over time after treatment for the indicated timepoints with title treatments alone or co-treated with 1.25 mM ULKTAC or 10 mM ULKTAC NZ-65 (F) or NZ-66 (G). Fold change in mitophagy index over time after treatment for the indicated timepoints with DMSO, 1.25 µM NZ-65 or NZ-66±50 µM TSPO ligand under co-treatment with DMSO (H) or 3 μM CCCP (I). […] Normalised to number of nuclei. All data shown are mean±SEM, n=3, *p<0.05, ** p<0.01, *** p<0.001. For colocalisation and TMRM experiments, one-way ANOVA with Dunnett's multiple comparisons test. For western blots, one-way ANOVA with Tukey's multiple comparisons test and unpaired t-test. For mito-mKeima experiment, two-way ANOVA with Tukey's multiple comparisons test.
For TOM20/ULK1 immunofluorescence, cells were seeded in a 384 well PerkinElmer CellCarrier Ultra plate 24 hours prior to treatment with compounds. Cells were treated for 18 hours after which they were fixed with 4% paraformaldehyde (PFA) in phosphate buffered saline (PBS) and blocked with 10% FBS and 0.1% Triton in PBS. Plates were incubated at 4° C. overnight, with 1:400 mouse anti-TOM20 (Santa Cruz, #sc-17764) and 1:400 rabbit anti-ULK1 (Cell Signalling Technologies, #0854). The following day, plates were incubated with 1:1000 goat anti-mouse Alexa 488 (ThermoFisher Scientific, #A-11029), 1:1000 goat anti-rabbit Alexa 568 (ThermoFisher Scientific, #A-11011) and 1.62 μM Hoechst 33342 at room temperature for 1 hour before imaging. For ATP5a/LC3 immunofluorescence, cells were fixed with ice-cold 1:1 MeOH: acetone and blocked with 3% BSA (Sigma-Aldrich, #A3803) in Dulbecco's PBS (D-PBS). Plates were incubated overnight at 4° C. with 1:400 LC3B (D11) XP Rabbit mAb Alexa Fluor 647 Conjugate (Cell Signalling Technologies, #65299) and 1:400 ATP5a (Cell Signalling Technologies, #18023) lightning-linked to Alexa Fluor 488. The following day, plates were incubated with 1.62 […] at room temperature for 1 hour before imaging. Excitation and emission spectra for each channel are as follows: Hoechst 33342=405/435-480 nm, Alexa 488=488/500-550 nm and Alexa 568=561/570-630 nm. Images were acquired at 40× and 63× magnification with water immersion lens.
To understand the temporal kinetics of NZ-65 and NZ-66, we assessed the recruitment of ULK1 to mitochondria, using co-localisation of ULK1 and TOM20 by immunofluorescence. […] After showing the co-localisation of ULK1 to the outer mitochondrial membrane (OMM) after ULKTAC treatment, we wanted to determine whether the ULKTACs induced mitophagy. To do this, we measured changes in Mfn2 under basal conditions and co-treatment with CCCP (FIG. 5C, D).

Row | SMILES | co-localisation of ULK1 and TOM20 (PANC-1, 18 hours, alone) | co-localisation of ULK1 and TOM20 (PANC-1, CCCP co-treatment)
1 | O=C(Nc1cc(C(F)(F)F)cc(C(F)(F)F)c1)N[C@@H](C(=O)Nc1ccc(F)cc1F)c1ccc(OCc2cn(CCOCCOCCNC(=O)C(=O)c3c(-c4ccccc4)[nH]c4ccccc34)nn2)cc1 [NZ-65, (R)-2-(3-(3,5-bis(trifluoromethyl)phenyl)ureido)-N-(2,4-difluorophenyl)-2-(4-((1-(2-(2-(2-(2-oxo-2-(2-phenyl-1H-indol-3-yl)acetamido)ethoxy)ethoxy)ethyl)-1H-1,2,3-triazol-4-yl)methoxy)phenyl) acetamide] | increased co-localisation of ULK1 and TOM20 | enhanced by CCCP co-treatment
2 | O=C(Nc1ccc(F)cc1F)[C@H](NC(=S)Nc1cc(C(F)(F)F)cc(C(F)(F)F)c1)c1ccccc1 [BL-918, reference compound] | neither BL-918 nor the TSPO ligand alone induce co-localisation | –
3 | O=C(Nc1cc(C(F)(F)F)cc(C(F)(F)F)c1)N[C@@H](C(=O)Nc1ccc(F)cc1F)c1ccc(OCc2cn(CCCCCCNC(=O)C(=O)c3c(-c4ccccc4)[nH]c4ccccc34)nn2)cc1 [NZ-66, (R)-2-(3-(3,5-bis(trifluoromethyl)phenyl)ureido)-N-(2,4-difluorophenyl)-2-(4-((1-(6-(2-oxo-2-(2-phenyl-1H-indol-3-yl)acetamido)hexyl)-1H-1,2,3-triazol-4-yl)methoxy)phenyl) acetamide] | increased co-localisation of ULK1 and TOM20 | enhanced by CCCP co-treatment
